Reference: PMC3411833, “The Two PPX-GppA Homologues from Mycobacterium tuberculosis Have Distinct Biochemical Activities” (PLoS ONE, 2012)

Columns and labels:
[1] = target: T1, E. coli GPP (EC-GPP, GppA) (Escherichia coli, UniProt P25552); test: GTP hydrolysis, anion exchange chromatography; format: biochemical; settings: 1 mM GTP, 1 mM MnCl2, 4 mM (NH4)2SO4, 50 mM Tris-HCl pH 7.4, 37°C
T1 construct: predicted 51 kDa; dimer
T1 sequence (P25552 1-494): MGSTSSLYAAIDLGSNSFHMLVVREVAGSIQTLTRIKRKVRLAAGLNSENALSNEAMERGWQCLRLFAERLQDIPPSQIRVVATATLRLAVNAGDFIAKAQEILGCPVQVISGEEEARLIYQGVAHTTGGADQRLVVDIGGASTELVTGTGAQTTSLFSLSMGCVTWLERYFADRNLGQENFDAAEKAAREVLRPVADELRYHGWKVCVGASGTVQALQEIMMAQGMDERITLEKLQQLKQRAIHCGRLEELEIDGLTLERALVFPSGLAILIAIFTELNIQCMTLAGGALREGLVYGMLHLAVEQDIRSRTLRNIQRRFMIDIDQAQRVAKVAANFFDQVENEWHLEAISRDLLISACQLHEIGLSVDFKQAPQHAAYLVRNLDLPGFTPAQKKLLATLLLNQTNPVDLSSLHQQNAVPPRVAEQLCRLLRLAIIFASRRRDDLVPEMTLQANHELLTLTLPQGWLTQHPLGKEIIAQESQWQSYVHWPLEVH

E. coli PPX (EC-PPX) = target: T2, E. coli PPX (EC-PPX) (Escherichia coli, UniProt P0AFL6); test: inhibition of poly-P130 hydrolysis, EnzChek phosphate release; format: biochemical; settings: poly-P130 125 µM, 1 mM MnCl2, 25 mM KCl, 50 mM HEPES pH 6.8, 37°C
T2 construct: predicted 53 kDa; dimer
T2 sequence (P0AFL6 2-513): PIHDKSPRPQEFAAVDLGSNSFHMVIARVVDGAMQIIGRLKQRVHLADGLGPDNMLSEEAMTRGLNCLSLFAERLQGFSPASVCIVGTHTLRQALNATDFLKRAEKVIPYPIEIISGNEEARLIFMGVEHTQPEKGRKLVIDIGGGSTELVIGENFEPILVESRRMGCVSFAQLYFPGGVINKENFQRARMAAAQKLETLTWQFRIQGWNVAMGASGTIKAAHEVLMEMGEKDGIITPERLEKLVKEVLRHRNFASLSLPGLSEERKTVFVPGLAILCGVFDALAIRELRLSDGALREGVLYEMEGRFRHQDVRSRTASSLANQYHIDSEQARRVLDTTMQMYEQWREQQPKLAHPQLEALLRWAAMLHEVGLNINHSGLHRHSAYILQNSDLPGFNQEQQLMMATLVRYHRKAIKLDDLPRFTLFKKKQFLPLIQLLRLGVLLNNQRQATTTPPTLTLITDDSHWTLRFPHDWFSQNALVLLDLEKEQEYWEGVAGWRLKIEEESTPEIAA
Excerpt: inhibition of poly-P130 hydrolysis, EnzChek phosphate release on E. coli PPX (EC-PPX)

[2] = target: T1, E. coli GPP (EC-GPP, GppA); test: as above; format: biochemical; settings: poly-P130 125 µM, 1 mM MnCl2, 25 mM KCl, 50 mM HEPES pH 6.8, 37°C
Excerpt: inhibition of poly-P130 hydrolysis, EnzChek phosphate release on E. coli GPP (EC-GPP, GppA)

[3] = target: Rv1026 protein from Mycobacterium tuberculosis H37Rv (Mycobacterium tuberculosis H37Rv); test: SEC + other: dynamic light scattering
[4] = target: the molecule itself; test: SEC + other: dynamic light scattering; Superdex 200 gel filtration calibrated with protein standards; light scattering of 2, 1 and 0.5 mg/ml protein in 25 mM Tris-HCl pH 7.4, 25 mM NaCl (DynaPro Plate Reader Plus); self-association, dimer
[5] = target: the molecule itself; test: SEC + other: dynamic light scattering

## Nc1nc2c(ncn2[C@@H]2O[C@H](COP(=O)(O)OP(=O)(O)OP(=O)(O)O)[C@@H](O)[C@H]2O)c(=O)[nH]1 [GTP]
[1]
  GTP hydrolysis, anion exchange chromatography: the E. coli GPP protein was a highly efficient GTPase and a modest ATPase

## Nc1nc2c(ncn2[C@@H]2O[C@H](COP(=O)(O)OP(=O)(O)O)[C@@H](OP(=O)(O)OP(=O)(O)O)[C@H]2O)c(=O)[nH]1 [ppGpp, guanosine 3′,5′-bisdiphosphate]
E. coli PPX (EC-PPX)
  Exopolyphosphatase activities / +1 mM ppGpp / (% decrease) / ATPase activities: 10.8±1.2%
[2]
  Exopolyphosphatase activities / +1 mM ppGpp / (% decrease) / ATPase activities: 6.0±0.5%

## Nc1nc2c(ncn2[C@@H]2O[C@H](COP(=O)(O)OP(=O)(O)OP(=O)(O)O)[C@@H](OP(=O)(O)OP(=O)(O)O)[C@H]2O)c(=O)[nH]1 [pppGpp, guanosine 5′-triphosphate, 3′-diphosphate]
E. coli PPX (EC-PPX)
  Exopolyphosphatase activities / +1 mM pppGpp / (% decrease) / ATPase activities: 89.6±20.1%
[2]
  Exopolyphosphatase activities / +1 mM pppGpp / (% decrease) / ATPase activities: 29.5±4.4%

## Rv1026 protein from Mycobacterium tuberculosis H37Rv (enzyme)
[3]
  stoichiometry N: 2

B1: E. coli guanosine pentaphosphate 5'-phosphohydrolase (GPP, GppA) (enzyme, E. coli BL21 (DE3), UniProt P25552 1-494, looked up)
chain: T1 sequence (P25552 1-494)
notes: also called EC-GPP; E. coli GPP; source: E. coli BL21(DE3), purified (HiTrap Chelating HP, eluted with 60 mM imidazole)
[4]
  stoichiometry N: 2

B2: E. coli exopolyphosphatase (PPX) (enzyme, E. coli BL21 (DE3), UniProt P0AFL6 1-513, looked up)
chain: MPIHDKSPRPQEFAAVDLGSNSFHMVIARVVDGAMQIIGRLKQRVHLADGLGPDNMLSEEAMTRGLNCLSLFAERLQGFSPASVCIVGTHTLRQALNATDFLKRAEKVIPYPIEIISGNEEARLIFMGVEHTQPEKGRKLVIDIGGGSTELVIGENFEPILVESRRMGCVSFAQLYFPGGVINKENFQRARMAAAQKLETLTWQFRIQGWNVAMGASGTIKAAHEVLMEMGEKDGIITPERLEKLVKEVLRHRNFASLSLPGLSEERKTVFVPGLAILCGVFDALAIRELRLSDGALREGVLYEMEGRFRHQDVRSRTASSLANQYHIDSEQARRVLDTTMQMYEQWREQQPKLAHPQLEALLRWAAMLHEVGLNINHSGLHRHSAYILQNSDLPGFNQEQQLMMATLVRYHRKAIKLDDLPRFTLFKKKQFLPLIQLLRLGVLLNNQRQATTTPPTLTLITDDSHWTLRFPHDWFSQNALVLLDLEKEQEYWEGVAGWRLKIEEESTPEIAA
notes: also called EC-PPX; E. coli PPX; source: E. coli BL21(DE3), purified (HiTrap Chelating HP, eluted with 60 mM imidazole)
[4]
  stoichiometry N: 2

B3: Rv0496 (MTB-PPX1) protein from Mycobacterium tuberculosis H37Rv (enzyme)
chain: MRLGVLDVGSNTVHLLVVDAHRGGHPTPMSSTKATLRLAEATDSSGKITKRGADKLISTIDEFAKIAISSGCAELMAFATSAVRDAENSEDVLSRVRKETGVELQALRGEDESRLTFLAVRRWYGWSAGRILNLDIGGGSLEVSSGVDEEPEIALSLPLGAGRLTREWLPDDPPGRRRVAMLRDWLDAELAEPSVTVLEAGSPDLAVATSKTFRSLARLTGAAPSMAGPRVKRTLTANGLRQLIAFISRMTAVDRAELEGVSADRAPQIVAGALVAEASMRALSIEAVEICPWALREGLILRKLDSEADGTALIESSSVHTSVRAVGGQPADRNAANRSRGSKP
[5]
  stoichiometry N: 2
